Measured values from patent publication US20160222412A1, “R[…] WITH S[…]-LOOP” (Tocagen Inc., priority 2013, published 2016).

B1: 6A-466: RRV with yCD2 and minimum IRES, 6As, base 183 to 544 of SEQ ID NO:41 (nucleic acid, listed as Encephalomyocarditis virus)
DNA: AGGAAGCAGTTCCTCTGGAAGCTTCTTGAAGACAAACAACGTCTGTAGCGACCCTTTGCAGGCAGCGGAACCCCCCACCTGGCGACAGGTGCCTCTGCGGCCAAAAGCCACGTGTATAAGATACACCTGCAAAGGCGGCACAACCCCAGTGCCACGTTGTGAGTTGGATAGTTGTGGAAAGAGTCAAATGGCTCTCCTCAAGCGTATTCAACAAGGGGCTGAAGGATGCCCAGAAGGTACCCCATTGTATGGGATCTGATCTGGGGCCTCGGTGCACATGCTTTACATGTGTTTAGTCGAGGTTAAAAANCGTCTAGGCCCCCCGAACCACGGGGACGTGGTTTTCCTTTGAAAAACACGAT
modifications: (492)..(492) “n” can be present or absent, if present n is “A”

Columns and labels:
[1] = Intravenous Toca 511 in Balb/c mice, long-term vector biolocalization study; type: in vivo
Text: Intravenous injection of Toca 511 into Balb/C mice. 2.35×10̂6 or 2.35×10̂5 TU of Toca 511 was intravenously administered to 8-week-old female Balb/C mice. Approximately 180 days post infection, genomic DNA from various tissues was harvested for bio-locolization study. Genomic DNA from abnormal tissues such as thymus or lymph node was extracted for sequence analysis of the envelope and IRES-yCD2 cassette.
RRV can undergo changes in the length of the oligo adenosine in the A bulge of the EMCV IRES in vivo. […] In a vector biolocalization study conducted as part of a preclinical package to support initiation of clinical trials, Toca 511 was injected intravenously into a permissive mouse strain (Balb/c mice) to evaluate long-term vector bio-localization. […] DNA from the abnormal thymus or lymph nodes of 3 mice were harvested for molecular PCR cloning of proviral sequences, followed by sequencing analysis. One feature was that there were multiple copies of the virus including recombinants with endogenous mouse MCF envelope sequences present, as occurs with lymphomagenesis with ecotropic MLV infection (Fan, 1997). Further analyses are planned for a future publication. […] It appears that the oligo A number drifts preferentially towards longer oligo A in the A bulge. However, the nature of this preference was undefined in the in vivo study.

U87-MG cells = experiment: yCD2 protein expression by immunoblot in infected U87-MG cells; type: cell-based, human; conditions: fully infected U87-MG cells
Method: RRVs containing various numbers of A's in the J-K bifurcation region express similar levels of transcripts but different levels of protein expression. The viral supernatant from HT1080 cells was then used to infect naive U87-MG cells at multiplicity of infection (MOI) of 0.1. At day 10 post infection, when the cells were fully infected, cellular viral RNA levels were measured by quantitative real-time polymerase chain reaction (qRT-PCR), and protein expression level of yCD2 was examined by immunoblotting (Perez et al., 2012). The cellular viral RNA expression levels were measured using two different primer sets, located in the env (5′Env2: 5′-[…]-3′ (SEQ ID NO:47), 3′Env2: 5′-[…]-3′ (SEQ ID NO:48), probe: 5′FAM-[…]-3′BHQ (SEQ ID NO:49)) and in yCD2 region (5′yCD2: 5′-[…]-3′ (SEQ ID NO:50), 3′yCD2: 5′-[…]-3′ (SEQ ID NO:51), probe: 5′FAM-[…]-3′BHQ (SEQ ID NO:52)), respectively, (FIG. 2). The relative level of RNA from each vector was calculated using 2-^ΔΔ(Ct) method with respect to the vector containing the 6As. […] Therefore, the effect of the number of A's in the loop were analyzed with another transgene for which the protein expression assay was well defined. […]
Immunoblot and cell-based yCD2 enzymatic assay. […] Quantity One software (Bio-Rad) was used to quantify the signal of yCD2 and GAPDH detected on the immunoblots. […]

Molecule | mice with abnormalities in lymphoid tissues ([1]; higher doses, 180 days, depending on the cohort) | change of oligo A length in A bulge of integrated proviruses in vivo ([1]; intravenous, approximately 180 days, abnormal thymus or lymph node) | yCD2 protein expression in comparison to the 6A variant with full-length IRES (U87-MG cells)
Toca 511: RRV with a 7A IRES expressing yCD2 (pAC3-yCD2; SEQ ID NO:22) | 10-20% | heterogeneous expansions of 7A to 8A, 9A, 10A, 11A and 12A and a contraction of 7A to 6A | 
B1 |  |  | shows expression of yCD2
